Measurements: US11142515B2, “Pyrazolyl-ureas as kinase inhibitors” (RESPIVERT LIMITED, priority 2014, dated 2021)

Legend:
[1] = target: T1, p38MAPKγ (MAPK12) (Homo sapiens, UniProt P53778); experiment: p38 MAPKγ enzyme inhibition (Z-LYTE FRET); assay type: biochemical; conditions: Table 2B, unit inferred; read-out: p38 MAPKγ (Enzyme Profile)
T1 construct: purchased Life Technologies
T1 sequence (P53778 1-367): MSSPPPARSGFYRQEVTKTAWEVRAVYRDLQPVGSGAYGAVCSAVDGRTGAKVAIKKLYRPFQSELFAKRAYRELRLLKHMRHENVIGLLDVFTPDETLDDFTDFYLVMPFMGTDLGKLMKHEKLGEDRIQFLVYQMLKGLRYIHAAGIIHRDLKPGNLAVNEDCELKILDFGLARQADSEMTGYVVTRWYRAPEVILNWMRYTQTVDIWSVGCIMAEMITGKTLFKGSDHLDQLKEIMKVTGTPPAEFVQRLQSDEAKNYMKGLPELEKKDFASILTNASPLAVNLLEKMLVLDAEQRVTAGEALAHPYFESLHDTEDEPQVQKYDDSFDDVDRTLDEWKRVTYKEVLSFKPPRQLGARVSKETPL
Procedure, shortened: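 Enzyme (added at 800 ng/mL) was preincubated 2 h at RT with compound (solutions of 40 to 0.0012 μg/mL), then FRET peptide (8 μM) and ATP (400 μM), both as added, were reacted 1 h at RT. Protease development followed for 1 h; phosphorylation was read as the coumarin/fluorescein emission ratio.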

[2] = target: T2, p38 MAPKα isoform (MAPK14) (Homo sapiens, UniProt Q16539); experiment: p38 MAPKα enzyme inhibition (Z-LYTE FRET); assay type: biochemical; conditions: Table 2B, unit inferred; read-out: p38 MAPKα (Enzyme Profile)
T2 construct: purchased Life Technologies
T2 sequence (Q16539 whole entry, canonical isoform): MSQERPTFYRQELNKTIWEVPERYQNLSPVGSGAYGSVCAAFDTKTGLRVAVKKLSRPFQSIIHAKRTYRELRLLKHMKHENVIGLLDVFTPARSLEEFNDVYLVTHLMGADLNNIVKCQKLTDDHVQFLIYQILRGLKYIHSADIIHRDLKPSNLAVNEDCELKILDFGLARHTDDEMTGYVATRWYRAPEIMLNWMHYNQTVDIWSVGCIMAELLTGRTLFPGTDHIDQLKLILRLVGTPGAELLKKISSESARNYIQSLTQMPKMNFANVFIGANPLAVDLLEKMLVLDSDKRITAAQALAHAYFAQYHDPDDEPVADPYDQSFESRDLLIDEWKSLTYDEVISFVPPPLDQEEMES
Procedure, shortened: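 Activity was measured indirectly as phosphorylation of a MAPKAP-K2-derived FRET peptide. Enzyme (added at 40 ng/mL) was preincubated 2 h at RT with compound (added solutions 40–0.0012 μg/mL).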

Compound	IC50 [1] [nM]	IC50 [2] [nM]
Cc1ccc(-n2nc(C(C)(C)C)cc2NC(=O)Nc2ccc(OCc3ccnc(Nc4cncc(C5CCOCC5)n4)c3)c3ccccc23)cc1 [Example 161, 1-(3-(tert-butyl)-1-(p-tolyl)-1H-pyrazol-5-yl)-3-(4-((2-((6-(tetrahydro-2H-pyran-4-yl)pyrazin-2-yl)amino)pyridin-4-yl)methoxy)naphthalen-1-yl)urea]	74	10
COc1cncc(Nc2cc(COc3ccc(NC(=O)Nc4cc(C(C)(C)C)nn4-c4ccc(C)s4)c4ccccc34)ccn2)n1 [Example 109, 1-(3-(tert-butyl)-1-(5-methylthiophen-2-yl)-1H-pyrazol-5-yl)-3-(4-((2-((6-methoxypyrazin-2-yl)amino)pyridin-4-yl)methoxy)naphthalen-1-yl) urea]	1330	115
COC1CN(C(=O)c2cnc(Nc3cc(COc4ccc(NC(=O)Nc5cc(C(C)(C)C)nn5-c5ccc(C)cc5)c5ccccc45)ccn3)cn2)C1 [Example 163, 1-(3-(tert-butyl)-1-(p-tolyl)-1H-pyrazol-5-yl)-3-(4-((2-((5-(3-methoxyazetidine-1-carbonyl)pyrazin-2-yl)amino)pyridin-4-yl)methoxy)naphthalen-1-yl) urea]	389	19
Cc1cccc(-n2nc(C(C)(C)C)cc2NC(=O)Nc2ccc(OCc3ccnc(Nc4cncc(C5CC5)n4)c3)c3ccccc23)c1 [Example 160, 1-(3-(tert-butyl)-1-(m-tolyl)-1H-pyrazol-5-yl)-3-(4-((2-((6-cyclopropylpyrazin-2-yl)amino)pyridin-4-yl)methoxy)naphthalen-1-yl) urea]	510	34
Cc1cc(F)cc(-n2nc(C(C)(C)C)cc2NC(=O)Nc2ccc(OCc3ccnc(Nc4cnccn4)c3)c3ccccc23)c1 [Example 181, 1-(3-(tert-butyl)-1-(3-fluoro-5-methylphenyl)-1H-pyrazol-5-yl)-3-(4-((2-(pyrazin-2-ylamino)pyridin-4-yl)methoxy)naphthalen-1-yl)urea]	64	15
CCc1ncc(Nc2cc(COc3ccc(NC(=O)Nc4cc(C(C)(C)C)nn4-c4ccc(C)cc4)c4ccccc34)ccn2)nc1C [Example 129, 1-(3-(tert-butyl)-1-(p-tolyl)-1H-pyrazol-5-yl)-3-(4-((2-((5-ethyl-6-methylpyrazin-2-yl)amino)pyridin-4-yl)methoxy)naphthalen-1-yl) urea]	> 15600	40
Cc1ccc(-n2nc(C(C)(C)C)cc2NC(=O)Nc2ccc(OCc3ccnc(Nc4cnccn4)c3)c3ccccc23)cn1 [Example 198, 1-(3-(tert-butyl)-1-(6-methylpyridin-3-yl)-1H-pyrazol-5-yl)-3-(4-((2-(pyrazin-2-ylamino)pyridin-4-yl)methoxy)naphthalen-1-yl)urea]	111	10
CCc1ccc(-n2nc(C(C)(C)C)cc2NC(=O)Nc2ccc(OCc3ccnc(Nc4cncc(CC)n4)c3)c3ccccc23)cc1 [Example 173, 1-(3-(tert-butyl)-1-(4-ethylphenyl)-1H-pyrazol-5-yl)-3-(4-((2-((6-ethylpyrazin-2-yl)amino)pyridin-4-yl)methoxy)naphthalen-1-yl) urea]	571	54
CCOc1ccc(-n2nc(C(C)(C)C)cc2NC(=O)Nc2ccc(OCc3ccnc(Nc4cnccn4)c3)c3ccccc23)cc1F [Example 183, 1-(3-(tert-butyl)-1-(4-ethoxy-3-fluorophenyl)-1H-pyrazol-5-yl)-3-(4-((2-(pyrazin-2-ylamino)pyridin-4-yl)methoxy)naphthalen-1-yl) urea]	> 15500	38
Cc1ccc(-n2nc(C(C)(C)C)cc2NC(=O)Nc2ccc(OCc3ccnc(Nc4cncc(NC5CC5)n4)c3)c3ccccc23)cc1 [Example 119, 1-(3-(tert-butyl)-1-(p-tolyl)-1H-pyrazol-5-yl)-3-(4-((2-((6-(cyclopropylamino)pyrazin-2-yl)amino)pyridin-4-yl)methoxy)naphthalen-1-yl)urea]	175	13
Cc1ccc(-n2nc(C(C)(C)C)cc2NC(=O)Nc2ccc(OCc3ccnc(Nc4cncc(N(C)C)n4)c3)c3ccccc23)s1 [Example 111, 1-(3-(tert-butyl)-1-(5-methylthiophen-2-yl)-1H-pyrazol-5-yl)-3-(4-((2-((6-(dimethylamino)pyrazin-2-yl)amino)pyridin-4-yl)methoxy)naphthalen-1-yl)urea]	125	33
Cc1cccc(-n2nc(C(C)(C)C)cc2NC(=O)Nc2ccc(OCc3ccnc(Nc4cnc(C(=O)N5CC[C@@H](O)C5)cn4)c3)c3ccccc23)c1 [Example 69]	106	8

Results, then the molecule that gave them:

IC50 [1] [nM]	IC50 [2] [nM]	Compound
151	19	CO[C@H]1CCCN(C(=O)c2cnc(Nc3cc(COc4ccc(NC(=O)Nc5cc(C(C)(C)C)nn5-c5ccc(C)cc5)c5ccccc45)ccn3)cn2)C1 [Example 238, (S)-1-(3-(tert-butyl)-1-(p-tolyl)-1H-pyrazol-5-yl)-3-(4-((2-((5-(3-methoxypiperidine-1-carbonyl)pyrazin-2-yl)amino)pyridin-4-yl)methoxy)naphthalen-1-yl)urea]
> 13800	11	CO[C@@H]1CCN(C(=O)c2cnc(Nc3cc(COc4ccc(NC(=O)Nc5cc(C(C)(C)C)nn5-c5cccc(C)c5)c5ccccc45)ccn3)cn2)C1 [Example 199, (R)-1-(3-(tert-butyl)-1-(m-tolyl)-1H-pyrazol-5-yl)-3-(4-((2-((5-(3-methoxy-pyrrolidine-1-carbonyl)pyrazin-2-yl)amino)pyridin-4-yl)methoxy)naphthalen-1-yl)urea]
103	11	Cc1ccc(-n2nc(C(C)(C)C)cc2NC(=O)Nc2ccc(OCc3ccnc(Nc4cnc(C(=O)N(C)CCCO)cn4)c3)c3ccccc23)cc1 [Example 223, 5-((4-(((4-(3-(3-(tert-butyl)-1-(p-tolyl)-1H-pyrazol-5-yl)ureido)naphthalen-1-yl)oxy)methyl)pyridin-2-yl)amino)-N-(3-hydroxypropyl)-N-methylpyrazine-2-carboxamide]
1270	81	CCc1cncc(Nc2cc(COc3ccc(NC(=O)Nc4cc(C(C)(C)C)nn4-c4cc(C)cc(OC)c4)c4ccccc34)ccn2)n1 [Example 221, 1-(3-(tert-butyl)-1-(3-methoxy-5-methylphenyl)-1H-pyrazol-5-yl)-3-(4-((2-((6-ethylpyrazin-2-yl)amino)pyridin-4-yl)methoxy)naphthalen-1-yl)urea]
96	8.5	Cc1ccc(-n2nc(C(C)(C)C)cc2NC(=O)Nc2ccc(OCc3ccnc(Nc4cnc(C(=O)N5CCS(=O)(=O)CC5)cn4)c3)c3ccccc23)cc1 [Example 243, 1-(3-(tert-butyl)-1-(p-tolyl)-1H-pyrazol-5-yl)-3-(4-((2-((5-(1,1-dioxidothiomor-pholine-4-carbonyl)pyrazin-2-yl)amino)pyridin-4-yl)methoxy)naphthalen-1-yl) urea]
175	23	CCc1cncc(Nc2cc(COc3ccc(NC(=O)Nc4cc(C(C)(C)C)nn4-c4cccc(COC)c4)c4ccccc34)ccn2)n1 [Example 222, 1-(3-(tert-butyl)-1-(3-(methoxymethyl)phenyl)-1H-pyrazol-5-yl)-3-(4-((2-((6-ethylpyrazin-2-yl)amino)pyridin-4-yl)methoxy)naphthalen-1-yl)urea]
